Measurements reported in PubChem BioAssay (NCI).
Where “and” joins values, the source holds several entries; their conditions need not be identical. Equal values may be shown once.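 Each compound was tested at five concentrations against cells in 96-well plates for 48 hours. GI50 is the concentration that inhibits growth by half. TGI marks complete inhibition of growth.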

Assays:
Experiment in all cases: inhibition of tumour cell growth, NCI panel, 48 h
OVCAR-5 ovarian = system: OVCAR-5 ovarian
786-0 renal = system: 786-0 renal
A498 renal = system: A498 renal
SW-620 colon = system: SW-620 colon
HOP-92 NSCLC = system: HOP-92 NSCLC
MOLT-4 leukemia = system: MOLT-4 leukemia
A549 NSCLC = system: A549 NSCLC
HL-60(TB) leukemia = system: HL-60(TB) leukemia
OVCAR-8 ovarian = system: OVCAR-8 ovarian
NCI-H522 lung = system: NCI-H522 lung

Row | SMILES | GI50 (OVCAR-5 ovarian) | TGI (OVCAR-5 ovarian) | GI50 (786-0 renal) | TGI (786-0 renal) | GI50 (A498 renal) | TGI (A498 renal) | GI50 (SW-620 colon) | TGI (SW-620 colon) | GI50 (HOP-92 NSCLC) | TGI (HOP-92 NSCLC) | GI50 (MOLT-4 leukemia) [µM] | TGI (MOLT-4 leukemia) | GI50 (A549 NSCLC) | TGI (A549 NSCLC) | GI50 (HL-60(TB) leukemia) [µM] | TGI (HL-60(TB) leukemia) | GI50 (OVCAR-8 ovarian) | TGI (OVCAR-8 ovarian) | GI50 (NCI-H522 lung) | TGI (NCI-H522 lung)
1 | N#CC(C#N)=C1CCOc2ccc(F)cc21 | 16.4 µM | 39.9 µM | 16.2 µM | 32.8 µM | 23 µM | 49.9 µM | 29.6 µM | > 100 µM | 2.05 µM | 15.9 µM | 16.2 | 29.7 µM | 26 µM | > 100 µM | 66.5 | > 100 µM | 19 µM | 43.7 µM | > 100 µM | > 100 µM
2 | C=CC(=O)N1C[C@@H]2CCOc3c(Cl)c(-c4c(O)cccc4F)c(F)c4ncnc(c34)N2C[C@H]1C | 16.3 µM | 31.1 µM | 14.7 µM | 29.4 µM | 13.6 µM | 28.1 µM | 13.9 µM | 33.1 µM | 17 µM | 39 µM | 5.79 | > 100 µM | 15.3 µM | 34.7 µM | 4.81 | 33.1 µM | 16.5 µM | 56.6 µM | 14.2 µM | 30.9 µM
3 | CC1=C(C)C(=O)O[C@@H]([C@](C)(O)[C@]2(O)CC[C@@]3(O)[C@@H]4C[C@H](O)[C@]5(O)[C@@H](O)C=CC(=O)[C@]5(C)[C@H]4CC[C@]23C)C1 | – | > 100 µM | – | > 100 µM | – | > 100 µM | – | > 100 µM | – | > 100 µM | – | > 100 µM | – | > 100 µM | – | 56.8 µM | – | > 100 µM | – | > 100 µM
4 | C#Cc1cccc(Nc2ncnc3ccc(OCCCCNCCS(C)(=O)=O)cc23)c1 | 4.93 µM | > 25 µM | 7.54 µM | > 25 µM | 3.18 µM | 9.75 µM | 9.43 µM | > 25 µM | 1.68 µM | 14.4 µM | 7.97 | 21.4 µM | 6.43 µM | > 25 µM | 5.37 | 11.3 µM | 7.56 µM | > 25 µM | 2.97 µM | 7.86 µM
5 | COc1cc(N2C(=O)[C@H](c3ccccc3)C2c2ccc(SC)cc2)cc(OC)c1OC (stereo partly drawn) | 0.0613 µM | > 100 µM | 0.0349 µM | 22.9 µM | 0.0232 µM | 0.078 µM | 0.0382 µM | > 100 µM | 0.031 µM | 16.5 µM | 0.04 | > 100 µM | 0.0374 µM | > 100 µM | 0.023 | 0.0666 µM | 0.0388 µM | > 100 µM | 0.0232 µM | 0.0734 µM
6 | CC(C)(C)c1cc(NC(=O)Nc2ccc(-c3cn4c(n3)sc3cc(OCCN5CCOCC5)ccc34)cc2)no1 | 21.7 µM and 9.53 µM and > 10 µM | 86.9 µM and 22.7 µM and > 10 µM | 2.85 µM and 0.616 µM and 4.06 µM | 15.8 µM and 3.29 µM and > 10 µM | 13.9 µM and 2.13 µM and > 10 µM | 28.4 µM and 11 µM and > 10 µM | 11.4 µM and 2.86 µM and > 10 µM | 27.2 µM and 17.6 µM and > 10 µM | 3.25 µM and 0.398 µM and 1.59 µM | 14.8 µM and 5.01 µM and > 10 µM | – | > 100 µM and 23.6 µM and > 10 µM | 3.93 µM and 1.48 µM and 6.89 µM | 19.5 µM and 13.8 µM and > 10 µM | – | > 100 µM and 24.8 µM and > 10 µM | 1.14 µM and 0.544 µM and 1.51 µM | 12.3 µM and 11.8 µM and > 10 µM | 0.9 µM and 0.937 µM and 3.32 µM | 15.5 µM and 13.5 µM and > 10 µM
7 | O=C(/C=C/c1ccccc1O)c1ccc([N+](=O)[O-])cc1 | – | 41.1 µM | – | 32.6 µM | – | 40.9 µM | – | 31.3 µM | – | > 100 µM | – | 76.6 µM | – | 48.9 µM | – | 56.9 µM | – | 29.1 µM | – | 33.1 µM
8 | CCOC(=O)C1=C(C)NC(=O)NC1CN1C(=O)c2ccccc2C1=O (stereo not drawn) | > 100 µM | > 100 µM | > 100 µM | > 100 µM | > 100 µM | > 100 µM | > 100 µM | > 100 µM | > 100 µM | > 100 µM | > 100 | > 100 µM | > 100 µM | > 100 µM | > 100 | > 100 µM | > 100 µM | > 100 µM | > 100 µM | > 100 µM
9 | CSc1nc2nn(Cc3ccccc3)cc2c(=O)[nH]1 | – | > 100 µM | – | > 100 µM | – | > 100 µM | – | > 100 µM | – | > 100 µM | – | > 100 µM | – | > 100 µM | – | > 100 µM | – | > 100 µM | – | > 100 µM
10 | O=C(CCc1ccccc1)NS(=O)(=O)c1ccccc1 | – | > 100 µM | – | > 100 µM | – | > 100 µM | – | > 100 µM | – | > 100 µM | – | > 100 µM | – | > 100 µM | – | > 100 µM | – | > 100 µM | – | > 100 µM
11 | CCOc1ccc(/C=C/c2cc(OC)c(OC)c(OC)c2)cc1 | – | > 100 µM | – | 37.4 µM | – | 30.4 µM | – | > 100 µM | – | 93.8 µM | – | 44.6 µM | – | > 100 µM | – | 1.46 µM | – | > 100 µM | – | 2.21 µM
12 | Cn1c2c(c3ccccc31)CCN(CCCCN1CCN(c3ccccc3)CC1)C2=O | – | 80.9 µM | – | > 46.4 µM | – | > 100 µM | – | > 56.2 µM | – | > 100 µM | – | > 78 µM | – | > 100 µM | – | > 81.3 µM | – | > 56.2 µM | – | > 100 µM
13 | COc1ccc(CCN(CC(=O)N(CC(N)=O)C2CCC[C@@H]2OCc2ccccc2)C(=O)CN(C(=O)CN(CCc2ccc(Cl)cc2)C(=O)CN(C(=O)CN(C)Cc2ccccc2F)[C@H](C)C2CCCCC2)[C@H](C)C2CCCCC2)cc1OC (stereo partly drawn) | 2.24 µM | > 50 µM | 2.14 µM | > 50 µM | 1.84 µM | > 50 µM | 2.56 µM | > 50 µM | 1.3 µM | 31.3 µM | 0.689 | 2.46 µM | 1.59 µM | > 50 µM | 1.21 | 3.24 µM | 2.82 µM | > 50 µM | 1.52 µM | 32.2 µM
14 | O=C(c1ccc(C(F)(F)F)c(Cl)c1)N(Cc1ccc(Cl)cc1)c1ccc(-c2cc(C(F)(F)F)[nH]n2)c(O)c1 | 1.07 µM | 4.26 µM | 0.895 µM | 1.7 µM | 1.04 µM | 2.66 µM | 0.958 µM | 2.4 µM | 0.629 µM | 2.14 µM | 1.32 | 5.09 µM | 1.35 µM | 5.11 µM | 1.12 | 2.69 µM | 1.2 µM | 3.91 µM | 0.893 µM | 3.31 µM
15 | c1ccncc1 | – | > 100 µM | – | > 100 µM | – | > 100 µM | – | > 100 µM | – | > 100 µM | – | > 100 µM | – | > 100 µM | – | > 100 µM | – | > 100 µM | – | > 100 µM
